This note sets out measurements from patent US12459974B2, “Bicyclic peptide ligands specific for Nectin-4” (priority 2018, dated 2025).

*1 amine or outer side, *2 acyl side, *3 side chain or, on linkers, in order; H or OH if unused. Where a SMILES comes first, the peptide text is derived from it. Bridges are numbered along the chain shown (N, C = ends). [ ]: non-standard residue; d: D form. TATA = O=C(CC[*:1])N1CN(C(=O)CC[*:2])CN(C(=O)CC[*:3])C1; 1Nal = N[C@@H](Cc1cccc2ccccc12)C(=O)O; NMeT = CN[C@H](C(=O)O)[C@@H](C)O; hArg = N=C(N)NCCCC[C@H](N)C(=O)O

The target in this test is T1, human Nectin-4 (Homo sapiens, UniProt Q96NY8).
T1 sequence (Q96NY8 32-510): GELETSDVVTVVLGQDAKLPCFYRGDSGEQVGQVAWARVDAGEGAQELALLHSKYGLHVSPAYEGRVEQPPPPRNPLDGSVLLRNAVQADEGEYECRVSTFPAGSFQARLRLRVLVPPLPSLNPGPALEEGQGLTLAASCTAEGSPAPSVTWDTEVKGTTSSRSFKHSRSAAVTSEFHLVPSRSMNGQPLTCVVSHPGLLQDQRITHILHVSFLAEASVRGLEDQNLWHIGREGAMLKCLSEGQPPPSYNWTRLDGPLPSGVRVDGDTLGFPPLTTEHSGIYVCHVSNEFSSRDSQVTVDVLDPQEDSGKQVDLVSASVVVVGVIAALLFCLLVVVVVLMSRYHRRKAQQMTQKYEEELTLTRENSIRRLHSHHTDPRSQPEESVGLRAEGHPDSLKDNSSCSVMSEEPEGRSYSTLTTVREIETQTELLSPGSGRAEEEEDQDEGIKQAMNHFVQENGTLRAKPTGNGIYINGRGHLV
Nature of the test: Nectin-4 competition binding assay (fluorescence polarisation). The following applies: competition with fluorescent peptide SEQ ID NO: 217; read-out: Ki. In a few lines: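 Serially diluted (1 in 2) peptides, max 5% DMSO, were mixed with human Nectin-4 and a fluorescent tracer peptide; FP read as in the direct binding assay. Ki from fitting mP values to a cubic competition equation using tracer concentration, tracer Kd and Nectin-4 concentration.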
Regarding `CC[C@H](C)[C@@H]1NC(=O)[C@@H]2CCCN2C(=O)[C@H](Cc2c[nH]c3ccccc23)NC(=O)[C@H](CO)NC(=O)[C@H](Cc2cccc3ccccc23)NC(=O)[C@H](CC(N)=O)NC(=O)[C@H](CCCCN)NC(=O)[C@H](CCSC)NC(=O)[C@@H]2CSCCC(=O)N3CN(CN(C3)C(=O)CCSC[C@H](NC(C)=O)C(=O)N3CCC[C@H]3C(=O)N[C@@H](Cc3ccccc3)C(=O)NCC(=O)N2)C(=O)CCSC[C@@H](C(N)=O)NC(=O)[C@H](Cc2c[nH]c3ccccc23)NC1=O` [BCY7663, Ac-(SEQ ID NO: 111)], the Ki (in general, the equilibrium dissociation constant of an inhibitor or competing ligand from its target) was 25.5 nM. Under `CC[C@H](C)[C@@H]1NC(=O)[C@@H]2CCCN2C(=O)[C@H]([C@@H](C)O)NC(=O)[C@H](CO)NC(=O)[C@H](Cc2c[nH]c3ccccc23)NC(=O)[C@H](CC(N)=O)NC(=O)[C@H](CCCCN)NC(=O)[C@H](CCSC)NC(=O)[C@@H]2CSCCC(=O)N3CN(CN(C3)C(=O)CCSC[C@H](NC(C)=O)C(=O)N3CCC[C@H]3C(=O)N[C@@H](Cc3ccccc3)C(=O)NCC(=O)N2)C(=O)CCSC[C@@H](C(N)=O)NC(=O)[C@H](Cc2c[nH]c3ccccc23)NC1=O` [BCY7665, Ac-(SEQ ID NO: 19)] (Ac-CPFGCMKNWSTPIWC-NH2; linker 1-5-15 via TATA; C-terminus assumed) stands 24.1 nM. Take `CC[C@H](C)[C@@H]1NC(=O)[C@@H]2CCCN2C(=O)[C@H]([C@@H](C)O)NC(=O)[C@H](CO)NC(=O)[C@H](Cc2c[nH]c3ccccc23)NC(=O)[C@H](CCCCN)NC(=O)[C@H](CCCCNC(=N)N)NC(=O)[C@H](CCSC)NC(=O)[C@@H]2CSCCC(=O)N3CN(CN(C3)C(=O)CCSC[C@H](NC(C)=O)C(=O)N3CCC[C@H]3C(=O)N[C@@H](Cc3ccccc3)C(=O)N[C@H](CC(=O)O)C(=O)N2)C(=O)CCSC[C@@H](C(N)=O)NC(=O)[C@H](Cc2c[nH]c3ccccc23)NC1=O` [BCY7822, Ac-(SEQ ID NO: 122)]: the Ki worked out at 27 nM. Consider `CC[C@H](C)[C@@H]1NC(=O)[C@@H]2CCCN2C(=O)[C@H]([C@@H](C)O)NC(=O)[C@H](CO)NC(=O)[C@H](Cc2c[nH]c3ccccc23)NC(=O)[C@H](CC(N)=O)NC(=O)[C@H](CCCCNC(=N)N)NC(=O)[C@H](CCSC)NC(=O)[C@@H]2CSCCC(=O)N3CN(CN(C3)C(=O)CCSC[C@H](NC(C)=O)C(=O)N3CCC[C@H]3C(=O)N[C@@H](Cc3ccccc3)C(=O)N[C@H](CCC(=O)O)C(=O)N2)C(=O)CCSC[C@@H](C(N)=O)NC(=O)[C@H](Cc2c[nH]c3ccccc23)NC1=O` [BCY7903, Ac-(SEQ ID NO: 140)], for which the inhibition constant (Ki) was determined as 41 nM. `CC[C@H](C)[C@@H]1NC(=O)[C@@H]2CCCN2C(=O)[C@H]([C@@H](C)O)NC(=O)[C@H](CO)NC(=O)[C@H](Cc2c[nH]c3ccccc23)NC(=O)[C@H](CC(N)=O)NC(=O)[C@H](CCCCNC(=N)N)NC(=O)[C@H](CCSC)NC(=O)[C@@H]2CSCCC(=O)N3CN(CN(C3)C(=O)CCSC[C@H](NC(C)=O)C(=O)N3CCC[C@H]3C(=O)N[C@@H](Cc3ccccc3)C(=O)N[C@H](CO)C(=O)N2)C(=O)CCSC[C@@H](C(N)=O)NC(=O)[C@H](Cc2c[nH]c3ccccc23)NC1=O` [BCY7907, Ac-(SEQ ID NO: 143)]: the Ki came to 10 nM.

Take `CC[C@H](C)[C@@H]1NC(=O)[C@@H]2CCCN2C(=O)[C@H]([C@@H](C)O)N(C)C(=O)[C@H](CO)NC(=O)[C@H](Cc2c[nH]c3ccccc23)NC(=O)[C@H](CC(N)=O)NC(=O)[C@H](CCCCNC(=N)N)NC(=O)[C@@H]2CSCCC(=O)N3CN(CN(C3)C(=O)CCSC[C@H](NC(C)=O)C(=O)N3CCC[C@H]3C(=O)N[C@@H](Cc3ccccc3)C(=O)N[C@H](CC(=O)O)C(=O)N2)C(=O)CCSC[C@@H](C(N)=O)NC(=O)[C@H](Cc2c[nH]c3ccccc23)NC1=O` [BCY7979, Ac-(SEQ ID NO: 152)] (Ac-CPF[dD]C[hArg]NWS[NMeT]PIWC-NH2; linker 1-5-14 via TATA; C-terminus assumed): the Ki is 191 nM.

Consider `CC[C@H](C)[C@@H]1NC(=O)[C@H](CCCNC(=N)N)NC(=O)[C@H](CC(N)=O)NC(=O)[C@@H]2CSCCC(=O)N3CN(CN(C3)C(=O)CCSC[C@H](NC(=O)[C@H](Cc3c[nH]c4ccccc34)NC(=O)[C@H](CCCCN)NC(=O)[C@H](CCC(N)=O)NC(C)=O)C(=O)N[C@@H](C)C(=O)N3CCC[C@H]3C(=O)N[C@@H](CC(C)C)C(=O)N[C@@H](CO)C(=O)N[C@@H](CC(=O)O)C(=O)N[C@@H](Cc3ccc(O)cc3)C(=O)N[C@@H](Cc3cccc4ccccc34)C(=O)N2)C(=O)CCSC[C@@H](C(N)=O)NC1=O` [BCY7998, Ac-QKW-(SEQ ID NO: 153)] (Ac-QKWCAPLSDY[1Nal]CNRIC-NH2; linker 4-12-16 via TATA; C-terminus assumed), for which the inhibition constant Ki is 135 nM.

With `CC[C@H](C)[C@@H]1NC(=O)[C@@H]2CCCN2C(=O)[C@H]([C@@H](C)O)NC(=O)[C@H](CO)NC(=O)[C@H](Cc2c[nH]c3ccccc23)NC(=O)[C@H](CC(N)=O)NC(=O)[C@H](CCCCNC(=N)N)NC(=O)[C@H](CCSC)NC(=O)[C@@H]2CSCCC(=O)N3CN(CN(C3)C(=O)CCSC[C@H](NC(=O)[C@H](CC(=O)O)NC(=O)[C@H](CC(=O)O)NC(=O)[C@H](CC(=O)O)NC(C)=O)C(=O)N3CCC[C@H]3C(=O)N[C@@H](Cc3ccccc3)C(=O)N[C@H](CC(=O)O)C(=O)N2)C(=O)CCSC[C@@H](C(N)=O)NC(=O)[C@H](Cc2c[nH]c3ccccc23)NC1=O` [BCY8028, Ac-DDD-(SEQ ID NO: 115)], the inhibitory constant (Ki) came out at 61.9 nM. Next, `CC[C@H](C)[C@@H]1NC(=O)[C@@H]2CCCN2C(=O)[C@H]([C@@H](C)O)NC(=O)[C@H](CO)NC(=O)[C@H](Cc2c[nH]c3ccccc23)NC(=O)[C@H](CC(N)=O)NC(=O)[C@H](CCCCNC(=N)N)NC(=O)[C@H](CC(C)C)NC(=O)[C@@H]2CSCCC(=O)N3CN(CN(C3)C(=O)CCSC[C@H](NC(C)=O)C(=O)N3CCC[C@H]3C(=O)N[C@@H](Cc3ccccc3)C(=O)N[C@H](CC(=O)O)C(=O)N2)C(=O)CCSC[C@@H](C(N)=O)NC(=O)[C@H](Cc2c[nH]c3ccccc23)NC1=O` [BCY8039, Ac-(SEQ ID NO: 161)] (Ac-CPF[dD]CL[hArg]NWSTPIWC-NH2; linker 1-5-15 via TATA; C-terminus assumed): 21.4 nM.

As to `CC[C@H](C)[C@@H]1NC(=O)[C@H](CCCNC(=N)N)NC(=O)[C@H](CC(N)=O)NC(=O)[C@@H]2CSCCC(=O)N3CN(CN(C3)C(=O)CCSC[C@H](NC(C)=O)C(=O)N[C@@H](C)C(=O)N3CCC[C@H]3C(=O)N[C@@H](CC(C)C)C(=O)N[C@@H](CO)C(=O)N[C@@H](CC(=O)O)C(=O)N[C@@H](Cc3ccc(O)cc3)C(=O)N[C@@H](Cc3c[nH]c4ccccc34)C(=O)N2)C(=O)CCSC[C@@H](C(N)=O)NC1=O` [BCY8044, Ac-(SEQ ID NO: 34)] (Ac-CAPLSDYWCNRIC-NH2; linker 1-9-13 via TATA; C-terminus assumed), the inhibition constant Ki came to 170 nM. Under `CC[C@H](C)[C@@H]1NC(=O)[C@@H]2CCCN2C(=O)[C@H]([C@@H](C)O)NC(=O)[C@H](CO)NC(=O)[C@H](Cc2c[nH]c3ccccc23)NC(=O)[C@H](CC(N)=O)N(C)C(=O)[C@H](CCCCNC(=N)N)NC(=O)[C@H](CCSC)NC(=O)[C@@H]2CSCCC(=O)N3CN(CN(C3)C(=O)CCSC[C@H](NC(C)=O)C(=O)N3CCC[C@H]3C(=O)N[C@@H](Cc3ccccc3)C(=O)N[C@H](CC(=O)O)C(=O)N2)C(=O)CCSC[C@@H](C(N)=O)NC(=O)[C@H](Cc2c[nH]c3ccccc23)NC1=O` [BCY8154, Ac-(SEQ ID NO: 174)] stands 8 nM. Under `CC[C@H](C)[C@H]1C(=O)N[C@@H](Cc2c[nH]c3ccccc23)C(=O)N[C@H](C(N)=O)CSCCC(=O)N2CN3CN(C2)C(=O)CCSC[C@H](NC(C)=O)C(=O)N2CCC[C@H]2C(=O)N[C@@H](Cc2ccccc2)C(=O)N[C@H](CC(=O)O)C(=O)N[C@@H](CSCCC3=O)C(=O)N[C@@H](CCSC)C(=O)N[C@@H](CCCCNC(=N)N)C(=O)N[C@@H](CC(N)=O)C(=O)N[C@@H](Cc2c[nH]c3ccccc23)C(=O)N[C@@H](CO)C(=O)N[C@@H]([C@@H](C)O)C(=O)N2CCC[C@H]2C(=O)N1C` [BCY8158, Ac-(SEQ ID NO: 176)] stands 177 nM. Under `CSCC[C@@H]1NC(=O)[C@@H]2CSCCC(=O)N3CN(CN(C3)C(=O)CCSC[C@H](NC(C)=O)C(=O)N3CCC[C@H]3C(=O)N[C@@H](Cc3cccc4ccccc34)C(=O)N[C@H](CC(=O)O)C(=O)N2)C(=O)CCSC[C@@H](C(N)=O)NC(=O)[C@H](Cc2c[nH]c3ccccc23)NC(=O)[C@@H]2C[C@@H](O)CN2C(=O)[C@@H]2CCCN2C(=O)[C@H]([C@@H](C)O)NC(=O)[C@H](CO)NC(=O)[C@H](Cc2c[nH]c3ccccc23)NC(=O)[C@H](CC(=O)O)NC(=O)[C@H](CCNC(=N)N)NC1=O` [BCY8181, Ac-(SEQ ID NO: 186)] stands 3.5 nM; under `CSCC[C@@H]1NC(=O)[C@@H]2CSCCC(=O)N3CN(CN(C3)C(=O)CCSC[C@H](NC(C)=O)C(=O)N3CCC[C@H]3C(=O)N[C@@H](Cc3cccc4ccccc34)C(=O)N[C@H](CCCNC(=N)N)C(=O)N2)C(=O)CCSC[C@@H](C(N)=O)NC(=O)[C@H](Cc2c[nH]c3ccccc23)NC(=O)[C@@H]2C[C@@H](O)CN2C(=O)[C@@H]2CCCN2C(=O)[C@H]([C@@H](C)O)NC(=O)[C@H](CCO)NC(=O)[C@H](Cc2c[nH]c3ccccc23)NC(=O)[C@H](CC(=O)O)NC(=O)[C@H](CCCCNC(=N)N)NC1=O` [BCY8188, Ac-(SEQ ID NO: 193)], 20 nM.
